Source: patent US11053204B2, “Pyrimidinyloxy benzene derivatives as herbicides” (FMC Corporation, priority 2015, dated 2021)

Assays:
Type in all cases: in vivo
[1] = tested on: blackgrass (Alopecurus myosuroides); assay: Test A postemergence, visual injury rating; conditions: 0 is no effect, 100 is complete control
Summary of the method: (§1)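 Scoring: eye-based comparison with untreated controls, 0 for no effect through 100 for complete control, at about day 10. Treatments: directed soil spray preemergence; foliar spray postemergence on 2–10 cm plants at the one- to two-leaf stage. Medium: loam soil with sand.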

corn (Zea mays) = assay: Test A postemergence, visual injury rating; conditions: 0 is no effect, 100 is complete control
Summary of the method: as §1

[2] = tested on: ragweed (common ragweed, Ambrosia elatior); assay: Test A postemergence, visual injury rating; conditions: 0 is no effect, 100 is complete control
Summary of the method: as §1

[3] = tested on: barnyardgrass (Echinochloa crus-galli); assay: Test A postemergence, visual injury rating; conditions: 0 is no effect, 100 is complete control
Summary of the method: as §1

[4] = tested on: pigweed (Amaranthus retroflexus); assay: Test A postemergence, visual injury rating; conditions: 0 is no effect, 100 is complete control
Summary of the method: as §1

[5] = tested on: Italian ryegrass (Lolium multiflorum); assay: Test A postemergence, visual injury rating; conditions: 0 is no effect, 100 is complete control
Summary of the method: as §1

[6] = tested on: galium (catchweed bedstraw, Galium aparine); assay: Test A postemergence, visual injury rating; conditions: 0 is no effect, 100 is complete control
Summary of the method: as §1

[7] = tested on: wheat (Triticum aestivum); assay: Test A postemergence, visual injury rating; conditions: 0 is no effect, 100 is complete control
Summary of the method: as §1

[8] = tested on: giant foxtail (Setaria faberii); assay: Test A postemergence, visual injury rating; conditions: 0 is no effect, 100 is complete control
Summary of the method: as §1

kochia (Kochia scoparia) [9] = assay: Test A postemergence, visual injury rating; conditions: 0 is no effect, 100 is complete control
Summary of the method: as §1

[10] = tested on: ragweed (common ragweed, Ambrosia elatior); assay: Test A preemergence, visual injury rating; conditions: for Ragweed plant response rating: 0 to 100 scale (0 no effect, 100 complete control)
Summary of the method: as §1

[11] = tested on: barnyardgrass (Echinochloa crus-galli); assay: Test A preemergence, visual injury rating; conditions: for Barnyardgrass plant response rating: 0 to 100 scale (0 no effect, 100 complete control)
Summary of the method: as §1

[12] = tested on: pigweed (Amaranthus retroflexus); assay: Test A preemergence, visual injury rating; conditions: for Pigweed plant response rating: 0 to 100 scale (0 no effect, 100 complete control)
Summary of the method: as §1

[13] = tested on: Italian ryegrass (Lolium multiflorum); assay: Test A preemergence, visual injury rating; conditions: for Ryegrass, Italian plant response rating: 0 to 100 scale (0 no effect, 100 complete control)
Summary of the method: as §1

[14] = tested on: giant foxtail (Setaria faberii); assay: Test A preemergence, visual injury rating; conditions: for Foxtail, Giant plant response rating: 0 to 100 scale (0 no effect, 100 complete control)
Summary of the method: as §1

kochia (Kochia scoparia) [15] = assay: Test A preemergence, visual injury rating; conditions: for Kochia plant response rating: 0 to 100 scale (0 no effect, 100 complete control)
Summary of the method: as §1

[16] = tested on: barnyardgrass (Echinochloa crus-galli); assay: Test B flooded paddy test, plant response rating; conditions: 250 g ai/ha; Flood; scale of 0 to 100 where 0 is no effect and 100 is complete control; 13 to 15 days
Summary of the method: (§2)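 Flooded 3 cm over soil; compound into paddy water; depth kept constant. Greenhouse 13–15 d.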

rice (Oryza sativa) = assay: Test B flooded paddy test, plant response rating; conditions: 250 g ai/ha; Flood; scale of 0 to 100 where 0 is no effect and 100 is complete control; 13 to 15 days
Summary of the method: as §2

[17] = tested on: ducksalad (Heteranthera limosa); assay: Test B flooded paddy test, plant response rating; conditions: 250 g ai/ha; Flood; scale of 0 to 100 where 0 is no effect and 100 is complete control; 13 to 15 days
Summary of the method: as §2

[18] = tested on: sedge, umbrella (small-flower umbrella sedge, Cyperus difformis); assay: Test B flooded paddy test, plant response rating; conditions: 250 g ai/ha; Flood; scale of 0 to 100 where 0 is no effect and 100 is complete control; 13 to 15 days
Summary of the method: as §2

[19] = 31 g ai/ha, 0 to 100 scale, approximately 10 days
[20] = 31 g ai/ha, 0 to 100 scale, 0 no effect, 100 complete control

N#Cc1ccc(Oc2ncc(Cl)cn2)c(C(=O)OCCC(F)(F)F)c1 [Compound 64]
0: Blackgrass plant response rating (0 to 100 scale) ([1]; 125 g ai/ha) | Blackgrass plant response rating (0 to 100 scale) ([1]; 500 g ai/ha) | Corn plant response rating (0 to 100 scale) (corn (Zea mays); 125 g ai/ha) | Corn plant response rating (0 to 100 scale) (corn (Zea mays); 500 g ai/ha) | Ragweed plant response rating (0 to 100 scale) ([2]; 125 g ai/ha) | Ragweed plant response rating (0 to 100 scale) ([2]; 500 g ai/ha) | Barnyardgrass plant response rating (0 to 100 scale) ([3]; 125 g ai/ha) | Barnyardgrass plant response rating (0 to 100 scale) ([3]; 500 g ai/ha) | Pigweed plant response rating (0 to 100 scale) ([4]; 125 g ai/ha) | Pigweed plant response rating (0 to 100 scale) ([4]; 500 g ai/ha) | Ryegrass, Italian plant response rating (0 to 100 scale) ([5]; 125 g ai/ha) | Ryegrass, Italian plant response rating (0 to 100 scale) ([5]; 500 g ai/ha) | Galium plant response rating (0 to 100 scale) ([6]; 125 g ai/ha) | Galium plant response rating (0 to 100 scale) ([6]; 500 g ai/ha) | Wheat plant response rating (0 to 100 scale) ([7]; 125 g ai/ha) | Wheat plant response rating (0 to 100 scale) ([7]; 500 g ai/ha) | Foxtail, Giant plant response rating (0 to 100 scale) ([8]; 125 g ai/ha) | Foxtail, Giant plant response rating (0 to 100 scale) ([8]; 500 g ai/ha) | Kochia plant response rating (0 to 100 scale) (kochia (Kochia scoparia) [9]; 125 g ai/ha) | Kochia plant response rating (0 to 100 scale) (kochia (Kochia scoparia) [9]; 500 g ai/ha) | Ragweed plant response rating ([10]; 125 g ai/ha) | Ragweed plant response rating ([10]; 500 g ai/ha) | Barnyardgrass plant response rating ([11]; 125 g ai/ha) | Barnyardgrass plant response rating ([11]; 500 g ai/ha) | Pigweed plant response rating ([12]; 125 g ai/ha) | Pigweed plant response rating ([12]; 500 g ai/ha) | Ryegrass, Italian plant response rating ([13]; 125 g ai/ha) | Ryegrass, Italian plant response rating ([13]; 500 g ai/ha) | Foxtail, Giant plant response rating ([14]; 125 g ai/ha) | Foxtail, Giant plant response rating ([14]; 500 g ai/ha) | Kochia plant response rating (kochia (Kochia scoparia) [15]; 125 g ai/ha) | Kochia plant response rating (kochia (Kochia scoparia) [15]; 500 g ai/ha) | Plant response rating, Barnyardgrass [16] | Plant response rating, Rice (rice (Oryza sativa)) | Plant response rating, Ducksalad [17] | Plant response rating, Sedge, Umbrella [18]

CCCC(=O)c1c(C#N)cccc1Oc1ncc(Cl)cn1 [Compound 67]
0: Blackgrass plant response rating [1, 19] | Blackgrass plant response rating (0 to 100 scale) ([1]; 125 g ai/ha) | Corn plant response rating (corn (Zea mays); [19]) | Corn plant response rating (0 to 100 scale) (corn (Zea mays); 125 g ai/ha) | Ragweed plant response rating [2, 19] | Ragweed plant response rating (0 to 100 scale) ([2]; 125 g ai/ha) | Barnyardgrass plant response rating [3, 19] | Barnyardgrass plant response rating (0 to 100 scale) ([3]; 125 g ai/ha) | Pigweed plant response rating [4, 19] | Pigweed plant response rating (0 to 100 scale) ([4]; 125 g ai/ha) | Ryegrass, Italian plant response rating [5, 19] | Ryegrass, Italian plant response rating (0 to 100 scale) ([5]; 125 g ai/ha) | Galium plant response rating [6, 19] | Galium plant response rating (0 to 100 scale) ([6]; 125 g ai/ha) | Wheat plant response rating [7, 19] | Wheat plant response rating (0 to 100 scale) ([7]; 125 g ai/ha) | Foxtail, Giant plant response rating [8, 19] | Foxtail, Giant plant response rating (0 to 100 scale) ([8]; 125 g ai/ha) | Kochia plant response rating (kochia (Kochia scoparia) [9]; [19]) | Kochia plant response rating (0 to 100 scale) (kochia (Kochia scoparia) [9]; 125 g ai/ha) | Plant response rating, Ragweed [10, 20] | Ragweed plant response rating ([10]; 125 g ai/ha) | Plant response rating, Barnyardgrass [11, 20] | Barnyardgrass plant response rating ([11]; 125 g ai/ha) | Plant response rating, Pigweed [12, 20] | Pigweed plant response rating ([12]; 125 g ai/ha) | Plant response rating, Ryegrass, Italian [13, 20] | Ryegrass, Italian plant response rating ([13]; 125 g ai/ha) | Plant response rating, Foxtail, Giant [14, 20] | Foxtail, Giant plant response rating ([14]; 125 g ai/ha) | Plant response rating, Kochia (kochia (Kochia scoparia) [15]; [20]) | Kochia plant response rating (kochia (Kochia scoparia) [15]; 125 g ai/ha) | Plant response rating, Barnyardgrass [16] | Plant response rating, Rice (rice (Oryza sativa)) | Plant response rating, Ducksalad [17] | Plant response rating, Sedge, Umbrella [18]
